Measurements as given in patent US10617680B2 (CELGENE QUANTICEL RESEARCH, INC., priority 2017, dated 2020).
Where two headings read alike, the source gives them in different places.

What was measured:
CBP = CBP (Homo sapiens (Human), UniProt Q92793); assay: In vitro CBP inhibition (AlphaScreen, biotinylated H4-tetraacetyl peptide); format: binding
Procedure, shortened: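 His-tagged CBP expressed in E. coli (50 nM final) incubated with biotinylated H4K5/8/12/16(Ac) peptide (20 nM final) in 50 mM HEPES pH 7.3, 10 mM NaCl, 0.25 mM TCEP, 0.1% BSA, 0.005% Brij-35, 0.4% DMSO, 20 min at room temp.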

BRD4 = BRD4 (Homo sapiens (Human), UniProt O60885); assay: In vitro enzyme inhibition assay - BRD4 inhibition; format: binding; conditions: BRD4 BD1, Table 30
[1] = AlphaScreen, Table 29, read-out: CBP IC50
[2] = Table 30, read-out: CRREBBP IC50

CBP, sequence (Q92793 1081-1197): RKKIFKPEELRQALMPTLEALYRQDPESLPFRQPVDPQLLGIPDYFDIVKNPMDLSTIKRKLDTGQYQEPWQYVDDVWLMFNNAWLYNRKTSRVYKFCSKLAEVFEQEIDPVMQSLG

Structure (SMILES) | IC50 (CBP; [1]) [nM] | IC50 (CBP; [2]) [nM] | IC50 (BRD4) [nM]
Cn1cc(-c2cnn(Cc3ccccc3)c2)c(N2CC[C@@H](C(=O)O)C2)cc1=O [Example 74, (R)-1-(5-(1-benzyl-1H-pyrazol-4-yl)-1-methyl-2-oxo-1,2-dihydro-pyridin-4-yl)pyrrolidine-3-carboxylic acid] | < 500 | < 500 | > 5000
Cn1cc(-c2cnn(Cc3ccccc3)c2)c(-n2ccnc2)cc1=O [Example 94, 5-(1-benzyl-1H-pyrazol-4-yl)-4-(1H-imidazol-1-yl)-1-methyl-pyridin-2(1H)-one] | < 500 | < 500 | > 5000
Cc1cc(-c2cc(=O)n(C)cc2-c2cnn(Cc3ccccc3)c2)[nH]n1 [Example 115, 5-(1-benzyl-1H-pyrazol-4-yl)-1-methyl-4-(3-methyl-1H-pyrazol-5-yl) pyridin-2(1H)-one] | < 500 | < 500 | > 5000
Cn1cc(-c2cnn(Cc3ccccc3)c2)c(-c2ccon2)cc1=O [Example 121, 5-(1-benzyl-1H-pyrazol-4-yl)-4-(isoxazol-3-yl)-1-methyl-pyridin-2(1H)-one] | < 500 | < 500 | > 5000
Cn1cc(-c2cnn(CS(C)(=O)=O)c2)c(-c2ccccc2)cc1=O [Example 129, 1-methyl-5-(1-((methyl-sulfonyl)-methyl)-1H-pyrazol-4-yl)-4-phenylpyridin-2(1H)-one] | < 500 | < 500 | > 5000
Cn1cc(-c2cnn(-c3ccccc3C(=O)O)c2)c(-c2ccccc2)cc1=O [Example 223, 2-[4-(1-Methyl-6-oxo-4-phenyl-1,6-dihydro-pyridin-3-yl)-pyrazol-1-yl]-benzoic acid] | < 500 | < 500 | > 5000
Cn1cc(-c2cnn(-c3ccccc3S(C)(=O)=O)c2)c(-c2ccc(Cl)cc2)cc1=O [Example 286, 4-(4-Chloro-phenyl)-5-[1-(2-methanesulfonyl-phenyl)-1H-pyrazol-4-yl]-1-methyl-1H-pyridin-2-one] | < 500 | < 500 | > 5000
CCNc1ncc(-c2cc(=O)n(C)cc2-c2cnn(-c3ccccc3C#N)c2)cn1 [Example 323, 2-(4-(4-(2-(ethylamino)pyrimidin-5-yl)-1-methyl-6-oxo-1,6-dihydropyridin-3-yl)-1H-pyrazol-1-yl)benzonitrile] | < 500 | < 500 | 500 to 5000
Cc1cc(-c2nc(NS(C)(=O)=O)ncc2Oc2ccc(F)cc2F)cn(C)c1=O [N-(5-(2,4-difluorophenoxy)-4-(1,5-dimethyl-6-oxo-1,6-dihydropyridin-3-yl)pyrimidin-2-yl) methanesulfonamide] |  | > 5000 | < 500
